Measured values from patent US20240140944A1, “NOVEL NAPHTHYRIDINONE DERIVATIVE HAVING INHIBITORY ACTIVITY AGAINST ECTONUCLEOTIDE PYROPHOSPHATASE-PHOSPHODIESTERASE AND USE THEREOF” (TXINNO BIOSCIENCE INC., priority 2020, published 2024).
Structures can show the parent of a compound that is named as a salt.

Assays:
[1] = tested on: interferon regulatory factor 3 (IRF3) in HCT116-Dual cells; assay: HCT116-Dual Cell Luciferase Assay (ISG54 promoter, IRF3 activity); format: cell-based; conditions: ENPP1 inhibitor usually 10 μM plus cGAMP 10 μM, 48 hours, Lucia luciferase
Excerpt: HCT116-Dual™ cells express genes encoding luciferase secreted under the control of the interferon-stimulated gene 54 (ISG54) promoter along with five interferon-stimulated response elements. The HCT116-Dual™ cell line was used to measure and monitor the activity of interferon regulatory factor 3 (IRF3), which induces production of type I interferon and relates to downstream signaling, and Lucia secreted in the culture medium was used to generate luminescence in a luciferase reaction.
HCT116-Dual™ cells were cultured at 2×10^4 cells/well (93.4 μL) in a 96-well plate for one day in a DMEM medium containing 10% FBS and 25 mM HEPES (pH 7.2-7.5). The cells were treated with 3.3 μL of ENPP1 inhibitor (usually 10 μM) and then 3.3 μL of cGAMP (10 μM) to set the final volume to 100 μL (The final fraction of DMSO was 0.1%). The cells treated with ENPP1 inhibitor and cGAMP were cultured at 37° C. for 48 hours and 50 μL of Quanti-Luc reaction solution was added to 20 μL of cell culture medium to measure luciferase activity. The increase in interferon regulatory factor 3 (IRF3) by the compound compared to cGAMP was determined as fold.

[2] = target: T1, human recombinant ENPP1 enzymes (Homo sapiens, UniProt P22413); assay: ENPP1 Enzyme Assay with cGAMP Substrate (AMP-Glo); format: biochemical; conditions: human recombinant ENPP1 3 ng/reaction, cGAMP 5 μM, 37° C. 90 minutes, average of two or more tests; read-out: Enzymatic activity IC50
T1 construct: purchased R & D systems
T1 sequence (P22413 1-925): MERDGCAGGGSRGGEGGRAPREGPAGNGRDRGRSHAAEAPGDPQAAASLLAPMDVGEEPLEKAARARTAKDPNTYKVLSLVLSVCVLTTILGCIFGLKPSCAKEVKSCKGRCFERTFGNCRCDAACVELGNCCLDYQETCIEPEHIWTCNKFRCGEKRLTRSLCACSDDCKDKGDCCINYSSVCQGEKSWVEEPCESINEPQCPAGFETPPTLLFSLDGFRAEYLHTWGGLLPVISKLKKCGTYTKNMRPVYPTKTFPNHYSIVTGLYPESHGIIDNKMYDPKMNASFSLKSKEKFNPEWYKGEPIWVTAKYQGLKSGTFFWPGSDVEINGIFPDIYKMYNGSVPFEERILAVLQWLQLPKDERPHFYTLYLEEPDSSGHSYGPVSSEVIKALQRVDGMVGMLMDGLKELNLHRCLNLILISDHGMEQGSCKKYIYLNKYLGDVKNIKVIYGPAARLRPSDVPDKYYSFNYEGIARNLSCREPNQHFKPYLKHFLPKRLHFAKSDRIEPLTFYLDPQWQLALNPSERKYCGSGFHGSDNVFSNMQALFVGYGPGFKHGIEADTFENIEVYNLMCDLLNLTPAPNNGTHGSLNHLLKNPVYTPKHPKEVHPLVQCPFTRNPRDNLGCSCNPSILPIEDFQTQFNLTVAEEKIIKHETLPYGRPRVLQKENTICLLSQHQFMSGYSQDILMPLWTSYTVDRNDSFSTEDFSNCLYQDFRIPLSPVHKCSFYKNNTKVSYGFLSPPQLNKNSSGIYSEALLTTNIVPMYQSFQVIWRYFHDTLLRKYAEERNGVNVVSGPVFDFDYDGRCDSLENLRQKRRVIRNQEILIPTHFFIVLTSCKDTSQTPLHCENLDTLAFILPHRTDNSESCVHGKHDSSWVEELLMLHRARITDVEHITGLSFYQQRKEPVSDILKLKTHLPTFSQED
Summary of the method: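 Human recombinant ENPP1 (3 ng/reaction) preincubated 5–10 min at RT with inhibitor, then reacted with 5 µM cGAMP for 90 min at 37 °C in 50 mM Tris pH 8.5, 250 mM NaCl, 0.5 mM CaCl2, 1 µM ZnCl2, 1% DMSO. AMP produced read by AMP-Glo luminescence; IC50 from 3-parameter fit, averaged over ≥2 runs.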

Structure (SMILES) | IC50 [2] [nM] | Cellular activity: increase in IRF3 by the compound compared to cGAMP, as fold [1]
Cl.O=c1ccc2c(-c3ccc(CNC4CC4)c(F)c3)ccnc2[nH]1 [Example 25, 5-(4-((cyclopropylamino)methyl)-3-fluorophenyl)-1,8-naphthyridin-2(1H)-one hydrochloride] | 1000 to 10000 | A (>2)
Cl.O=c1ccc2c(-c3cc4c(cc3F)CCNC4)ccnc2[nH]1 [Example 28, 5-(6-fluoro-1,2,3,4-tetrahydroisoquinolin-7-yl)-1,8-naphthyridin-2(1H)-one hydrochloride] | < 1000 | B (1< Fold <2)
Cl.NS(=O)(=O)N(Cc1ccc(-c2ccnc3[nH]c(=O)ccc23)cc1F)C1CC1 [Example 54, N-cyclopropyl-N-(2-fluoro-4-(7-oxo-7,8-dihydro-1,8-naphthyridin-4-yl)benzyl)sulfamide hydrochloride] | < 1000 | B (1< Fold <2)
CN(Cc1ccc(-c2ccnc3[nH]c(=O)ccc23)c(F)c1)S(N)(=O)=O.Cl [Example 55, N-(3-fluoro-4-(7-oxo-7,8-dihydro-1,8-naphthyridin-4-yl)benzyl)-N-methylsulfamide hydrochloride] | < 1000 | B (1< Fold <2)
CCN(Cc1ccc(-c2ccnc3[nH]c(=O)ccc23)c(F)c1)S(N)(=O)=O.Cl [Example 56, N-ethyl-N-(3-fluoro-4-(7-oxo-7,8-dihydro-1,8-naphthyridin-4-yl)benzyl)sulfamide hydrochloride] | < 1000 | B (1< Fold <2)
Cl.NS(=O)(=O)N(Cc1ccc(-c2ccnc3[nH]c(=O)ccc23)c(F)c1)C1CC1 [Example 58, N-cyclopropyl-N-(3-fluoro-4-(7-oxo-7,8-dihydro-1,8-naphthyridin-4-yl)benzyl)sulfamide hydrochloride] | < 1000 | B (1< Fold <2)
NCCc1ccc(F)c(Nc2ccnc3[nH]c(=O)ccc23)c1 [Example 79, 5-((5-(2-aminoethyl)-2-fluorophenyl)amino)-1,8-naphthyridin-2(1H)-one dihydrochloride] | 1000 to 10000 | B (1< Fold <2)
CN(CCc1cccc(Nc2ccnc3[nH]c(=O)ccc23)c1)S(N)(=O)=O [Example 93, N-methyl-N-(3-((7-oxo-7,8-dihydro-1,8-naphthyridin-4-yl)amino)phenethyl)sulfamide dihydrochloride] | < 1000 | B (1< Fold <2)
CCN(CCc1cccc(Nc2ccnc3[nH]c(=O)ccc23)c1)S(N)(=O)=O [Example 94, N-ethyl-N-(3-((7-oxo-7,8-dihydro-1,8-naphthyridin-4-yl)amino)phenethyl)sulfamide dihydrochloride] | < 1000 | B (1< Fold <2)
NS(=O)(=O)N1CCc2ccc(Nc3ccnc4[nH]c(=O)ccc34)cc2C1 [Example 102, 7-((7-oxo-7,8-dihydro-1,8-naphthyridin-4-yl)amino)-3,4-dihydroisoquinolin-2(1H)-yl)sulfamide dihydrochloride] | < 1000 | A (>2)

Further lines, with some results ahead:

IC50 [2] [nM] | Structure (SMILES) | Cellular activity: increase in IRF3 by the compound compared to cGAMP, as fold [1]
< 1000 | NS(=O)(=O)Nc1cccc(-c2ccnc3[nH]c(=O)ccc23)c1 [Example 35, N-(3-(7-oxo-7,8-dihydro-1,8-naphthyridin-4-yl)phenyl)sulfamide hydrochloride] | B (1< Fold <2)
< 1000 | NS(=O)(=O)Nc1cc(-c2ccnc3[nH]c(=O)ccc23)ccc1F [Example 36, N-(2-fluoro-5-(7-oxo-7,8-dihydro-1,8-naphthyridin-4-yl)phenyl)sulfamide hydrochloride] | B (1< Fold <2)
< 1000 | NS(=O)(=O)NCc1cccc(-c2ccnc3[nH]c(=O)ccc23)c1 [Example 37, N-(3-(7-oxo-7,8-dihydro-1,8-naphthyridin-4-yl)benzyl)sulfamide] | B (1< Fold <2)
< 1000 | NS(=O)(=O)NCc1cc(-c2ccnc3[nH]c(=O)ccc23)ccc1F [Example 38, N-(2-fluoro-5-(7-oxo-7,8-dihydro-1,8-naphthyridin-4-yl)benzyl)sulfamide hydrochloride] | B (1< Fold <2)
< 1000 | NS(=O)(=O)NCc1ccc(-c2ccnc3[nH]c(=O)ccc23)c(F)c1 [Example 42, N-(3-fluoro-4-(7-oxo-7,8-dihydro-1,8-naphthyridin-4-yl)benzyl)sulfamide hydrochloride] | A (>2)
< 1000 | NS(=O)(=O)NCc1ccc(-c2ccnc3[nH]c(=O)ccc23)c(F)c1F [Example 43, N-(2,3-difluoro-4-(7-oxo-7,8-dihydro-1,8-naphthyridin-4-yl)benzyl)sulfamide hydrochloride] | B (1< Fold <2)
< 1000 | CC(NS(N)(=O)=O)c1ccc(-c2ccnc3[nH]c(=O)ccc23)cc1.Cl (stereo not shown) [Example 45, N-(1-(4-(7-oxo-7,8-dihydro-1,8-naphthyridin-4-yl)phenyl)ethyl)sulfamide hydrochloride] | B (1< Fold <2)
< 1000 | CN(Cc1ccc(-c2ccnc3[nH]c(=O)ccc23)cc1F)S(N)(=O)=O.Cl [Example 52, N-(2-fluoro-4-(7-oxo-7,8-dihydro-1,8-naphthyridin-4-yl)benzyl)-N-methylsulfamide hydrochloride] | B (1< Fold <2)
< 1000 | CCN(Cc1ccc(-c2ccnc3[nH]c(=O)ccc23)cc1F)S(N)(=O)=O.Cl [Example 53, N-ethyl-N-(2-fluoro-4-(7-oxo-7,8-dihydro-1,8-naphthyridin-4-yl)benzyl)sulfamide hydrochloride] | B (1< Fold <2)
< 1000 | C[C@@H](c1ccc(-c2ccnc3[nH]c(=O)ccc23)cc1)N(C)S(N)(=O)=O [Example 61, (S)-(N-methyl-N-(1-(4-(7-oxo-7,8-dihydro-1,8-naphthyridin-4-yl)phenyl)ethyl)sulfamide hydrochloride] | B (1< Fold <2)
< 1000 | NS(=O)(=O)N1Cc2ccc(-c3ccnc4[nH]c(=O)ccc34)cc2C1 [Example 64, 5-(7-oxo-7,8-dihydro-1,8-naphthyridin-4-yl)isoindolin-2-yl)sulfamide hydrochloride] | B (1< Fold <2)
< 1000 | NS(=O)(=O)N1CCc2ccc(-c3ccnc4[nH]c(=O)ccc34)cc2C1 [Example 65, 7-(7-oxo-7,8-dihydro-1,8-naphthyridin-4-yl)dihydroisoquinoline-2(1H)-sulfamide hydrochloride] | B (1< Fold <2)
< 1000 | NS(=O)(=O)Nc1ccc(Nc2ccnc3[nH]c(=O)ccc23)cc1 [Example 97, N-(4-((7-oxo-7,8-dihydro-1,8-naphthyridin-4-yl)amino)phenyl)sulfamide dihydrochloride] | B (1< Fold <2)
